Seven compounds from patent US9101769B2, “High density epidural stimulation for facilitation of locomotion, posture, voluntary movement, and recovery of autonomic, sexual, vasomotor, and cognitive function after neurological injury” (The Regents of the University of California, priority 2011, dated 2015) can be followed below.

Assay [1] has as its system stepping in animals. Kind of assay: Pharmacological facilitation of stepping, optimal concentration of illustrative agents (Table 1). It is filed as in vivo. As for the experimental part:
In certain embodiments, the methods described herein are used in conjunction with various pharmacological agents. […] These agents can be used in combination with epidural stimulation and physical therapy as described above.
In certain embodiments, the drugs are administered systemically, while in other embodiments, the drugs are administered locally, e.g., to particular regions of the spinal cord. Drugs that modulate the excitability of the spinal neuromotor networks are combinations of noradrenergic, serotonergic, GABAergic, and glycinergic receptor agonists and antagonists. Illustrative pharmacological agents include, but are not limited to agonists and antagonists to one or more combinations of serotonergic: 5-HT1A, 5-HT2A, 5-HT3, and 5HT7 receptors; to noradrenergic alpha1 and 2 receptors; and to dopaminergic D1 and D2 receptors (see, e.g., Table 1).

The subject of assay [2] is rat with complete mid-thoracic spinal cord transection. The experiment in a line: Epidural stimulation coupled with drug therapy, locomotor behavior after complete spinal cord transection (FIG. 1). It is filed as in vivo. As for the experimental part: FIG. 1 summarizes recent experiments in rats that were carried out to assess the effectiveness of epidural stimulation coupled with combined drug therapy in the treatment of complete spinal cord injuries. The combination of quipazine and 8-0HDPAT with simultaneous epidural stimulation at spinal sites L2 and S1 results in robust coordinated stepping as early as one week after a complete spinal cord transection. Locomotor behavior observed from a typical rat before the injury and one week after a complete mid-thoracic spinal cord transection. The amount of body weight support provided to the rat is shown in red. One week post-injury, no spontaneous stepping activity is observed. […] Sol, soleus; TA, tibialis anterior; MTP, metatarsal-phalangeal.
FIG. 1 summarizes experiments in rats that were carried out to assess the effectiveness of epidural stimulation coupled with combined drug therapy in acute treatment of complete spinal cord injury.

[3] abbreviates: one week after complete mid-thoracic spinal cord transection, drug administration without epidural stimulation.
The mark [4] stands for this setting: one week post-injury, epidural stimulation at L2 plus S1 with quipazine plus 8-OHDPAT together.
[5] abbreviates: one week post-injury, epidural stimulation simultaneously at L2 plus S1 in combination with either quipazine or 8-OHDPAT.

For the compound `CCCN(CCC)C1CCc2cccc(O)c2C1` (stereo not drawn) [8-OHDPAT], the “Optimal Concentration” value in assay [1] (route S.C.) was determined as 0.05 mg/kg. The “Locomotor behavior (stepping)” value in assay [2] (setting [3]) is “erratic movements”; in assay [2] (setting [4]), “coordinated, plantar stepping with features resembling those observed pre-lesion”; in assay [2] (setting [5]), “enables plantar stepping”.
Consider `Cc1nccn1CC1CCc2c(c3ccccc3n2C)C1=O` (stereo not drawn) [Ondanesetron], for which, in assay [1] (route I.P.), the “Optimal Concentration” value worked out at 3 mg/kg.
With `c1ccc2nc(N3CCNCC3)ccc2c1` [Quipazine], the “Locomotor behavior (stepping)” value in assay [2] (setting [3]) is listed as “erratic movements”; in assay [2] (setting [4]), “coordinated, plantar stepping with features resembling those observed pre-lesion”; in assay [2] (setting [5]), “enables plantar stepping”.
For the compound `CC1CCN(CC[C@H]2CCCN2S(=O)(=O)c2cccc(O)c2)CC1` [SB 269970], in assay [1] (route I.P.), the “Optimal Concentration” value was found to be 7 mg/kg.
On the same count and under the same terms, then `Oc1cc2c(c(Cl)c1O)CCNCC2c1ccccc1` (stereo not drawn) [SKF-81297], with 0.2 mg/kg; and `Cl.NC1CCN(c2cccc(Cl)n2)CC1` [SR 57227A], with 1.5 mg/kg; and `COc1ccccc1N1CCN(CCN(C(=O)C2CCCCC2)c2ccccn2)CC1` [Way 100.635], with 0.5 mg/kg.
